Measured values published in patent publication US12662491B2 (Redona Therapeutics, Inc., priority 2020, dated 2026).

Target: T1, Zcchc11 enzyme (Homo sapiens, UniProt Q5TAX3)
T1 construct: made in house; host or cells: HEK293 cells (Zcchc11); E. coli Rosetta II (LIN28A)
T1 sequence (Q5TAX3 212-1420): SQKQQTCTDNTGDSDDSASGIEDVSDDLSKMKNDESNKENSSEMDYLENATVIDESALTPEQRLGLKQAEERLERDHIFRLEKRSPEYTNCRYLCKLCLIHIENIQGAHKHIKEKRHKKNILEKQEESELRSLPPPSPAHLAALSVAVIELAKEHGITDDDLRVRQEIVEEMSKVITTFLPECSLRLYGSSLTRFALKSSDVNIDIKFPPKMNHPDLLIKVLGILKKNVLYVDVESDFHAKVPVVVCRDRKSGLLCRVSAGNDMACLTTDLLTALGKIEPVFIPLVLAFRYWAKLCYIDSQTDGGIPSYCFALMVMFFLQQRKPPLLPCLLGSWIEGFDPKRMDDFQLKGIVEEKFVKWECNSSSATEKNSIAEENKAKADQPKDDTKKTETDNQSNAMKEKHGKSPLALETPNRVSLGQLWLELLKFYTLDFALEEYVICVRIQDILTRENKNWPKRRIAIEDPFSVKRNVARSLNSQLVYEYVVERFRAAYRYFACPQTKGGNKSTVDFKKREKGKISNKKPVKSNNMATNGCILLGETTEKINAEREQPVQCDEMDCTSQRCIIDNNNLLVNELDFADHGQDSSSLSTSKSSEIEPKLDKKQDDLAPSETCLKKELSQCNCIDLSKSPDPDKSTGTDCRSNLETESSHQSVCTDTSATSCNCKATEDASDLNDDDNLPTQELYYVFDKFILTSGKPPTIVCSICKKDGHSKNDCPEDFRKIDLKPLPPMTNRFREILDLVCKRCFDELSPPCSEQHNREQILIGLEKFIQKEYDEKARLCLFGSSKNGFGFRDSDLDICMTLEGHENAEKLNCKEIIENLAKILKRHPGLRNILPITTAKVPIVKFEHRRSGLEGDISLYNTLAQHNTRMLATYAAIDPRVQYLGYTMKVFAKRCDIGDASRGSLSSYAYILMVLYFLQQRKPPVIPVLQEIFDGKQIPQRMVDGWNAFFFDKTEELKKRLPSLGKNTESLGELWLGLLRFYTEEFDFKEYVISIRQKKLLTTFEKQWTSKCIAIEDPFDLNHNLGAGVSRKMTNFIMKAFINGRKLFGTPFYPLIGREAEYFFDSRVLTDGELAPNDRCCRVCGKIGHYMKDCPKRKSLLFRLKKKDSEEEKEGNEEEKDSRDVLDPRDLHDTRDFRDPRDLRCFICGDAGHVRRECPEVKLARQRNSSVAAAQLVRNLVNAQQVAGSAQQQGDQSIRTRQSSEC
Experiment: TUTase assay (Zcchc11 assay, Lin28a-dependent polyuridylation of pre-let-7)
Type: biochemical
Settings: LIN28A 10 nM, Zcchc11 0.2 nM, 5′-fluorescein pre-let-7 miRNA 2 nM, UTP 5 uM, room temperature, 30 minutes pre-incubation; read-out: Potency Lin28a-dep Z11 IC50
Procedure, shortened: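 LIN28A (10 nM) in pH 7.3 HEPES/KCl/MgCl2/DTT buffer was mixed with serially diluted compound, then 0.2 nM truncated human Zcchc11 and 2 nM labeled pre-let-7 were added for 30 min at room temperature. UTP (5 uM) and quench probe (4 nM) then started the reaction. Linear early rates gave IC50 values.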

| IC50 [µM] | Compound |
| --- | --- |
| ≤ 1 | COc1ccc(Cl)c(OC[C@H]2CC3CC3N2c2cc3c(cc2F)c(=O)c(C(=O)O)cn3-c2ccc(N3CC(N(C)C)C3)nc2)n1 (stereo partly drawn) [Example 72, 7-[(3R)-3-{[(3-chloro-6-methoxypyridin-2-yl)oxy]methyl}-2-azabicyclo[3.1.0]hexan-2-yl]-1-{6-[3-(dimethylamino)azetidin-1-yl]pyridin-3-yl}-6-fluoro-4-oxo-1,4-dihydroquinoline-3-carboxylic acid] |
| > 50 | CC1(n2cc(C(=O)O)c(=O)c3cc(Cl)c(N4C(=O)CC[C@@H]4COc4ccccn4)cc32)CC1 [Example 24, (R)-6-chloro-1-(1-methylcyclopropyl)-4-oxo-7-(2-oxo-5-((pyridin-2-yloxy)methyl)pyrrolidin-1-yl)-1,4-dihydroquinoline-3-carboxylic acid] |

Same assay, conditions: Lin28a-dependent Zcchc11 (Z11) TUTase activity; read-out: Potency Lin28a-dep Z11 IC50

| Compound | IC50 [µM] |
| --- | --- |
| CN(C)C1CN(c2ccc(-n3cc(C(=O)O)c(=O)c4ccc(N5C(=O)CCCC5COc5ccccn5)cc43)cn2)C1 (stereo not shown) [Compound 323, 1-[6-[3-(Dimethyl-amino)azetidin-1-yl]pyridin-3-yl]-4-oxo-7-[2-oxo-6-[(pyridin-2-yloxy)methyl]piperidin-1-yl]quinoline-3-carboxylic acid] | > 50 |
| CN(C)C1CN(c2ccc(-n3cc(C(=O)O)c(=O)c4cc(Cl)c(N5CC(C6CCC6)C[C@@H]5COc5ncccc5Cl)cc43)cn2)C1 (mixture of isomers) [Compound 205, rac-6-chloro-7-((2R)-2-((3-chloropyridin-2-yl)oxy)methyl)-4-cyclobutyl-pyrrolidin-1-yl)-1-(6-(3-(dimethyl-amino)azetidin-1-yl)pyridin-3-yl)-4-oxo-1,4-dihydro-quinoline-3-carboxylic acido-quinoline-3-carboxylic acid] | ≤ 1 |
| O=C(O)c1cn(-c2ccc(O)cc2C(F)(F)F)c2cc(N3CCC[C@@H]3COc3ccccn3)c(F)cc2c1=O [Compound 164, (R)-6-fluoro-1-(4-hydroxy-2-(trifluoro-methyl)phenyl)-4-oxo-7-(2-((pyridin-2-yloxy)methyl)pyrrolidin-1-yl)-1,4-dihydro-quinoline-3-carboxylic acid] | 10 to 50 |
| CC1C[C@H](COc2ncccc2Cl)N(c2cc3c(cc2Cl)c(=O)c(C(=O)O)cn3-c2ccc(N3CC(N(C)C)C3)nc2)C1 (stereo partly drawn) [Compound 296, 6-chloro-7-((2R)-2-(((3-chloropyridin-2-yl)oxy)methyl)-4-methyl-pyrrolidin-1-yl)-1-(6-(3-(dimethyl-amino)azetidin-1-yl)pyridin-3-yl)-4-oxo-1,4-dihydro-quinoline-3-carboxylic acid] | ≤ 1 |
| O=C(O)c1cn(-c2cnn(C3CN(CC(F)(F)F)C3)c2)c2cc(N3CCC[C@@H]3COc3ncccc3Cl)c(Cl)cc2c1=O [Compound 239, 6-chloro-7-[(2R)-2-[[(3-chloropyridin-2-yl)oxy]methyl]pyrrolidin-1-yl]-4-oxo-1-[1-[1-(2,2,2-trifluoro-ethyl)azetidin-3-yl]pyrazol-4-yl]quinoline-3-carboxylic acid] | ≤ 1 |

Further lines, results first:

| IC50 [µM] | Compound |
| --- | --- |
| ≤ 1 | O=C(O)c1cn(-c2cnccn2)c2cc(N3CCC[C@@H]3COc3ncccc3F)c(Cl)cc2c1=O [Compound 213, 6-Chloro-7-[(2R)-2-{[(3-fluoropyridin-2-yl)oxy]methyl}pyrrolidin-1-yl]-4-oxo-1-(pyrazin-2-yl)quinoline-3-carboxylic acid] |
| ≤ 1 | O=C(O)c1cn(-c2ccccc2)c2cc(N3CCC[C@@H]3COc3ncccc3Cl)c(Cl)cc2c1=O [Compound 109, (R)-6-chloro-7-(2-(((3-chloropyridin-2-yl)oxy)methyl)pyrrolidin-1-yl)-4-oxo-1-phenyl-1,4-dihydro-quinoline-3-carboxylic acid] |
| ≤ 1 | O=C(O)c1cn(-c2ccc(O)cc2F)c2cc(N3CCC[C@@H]3COc3ccccn3)c(Cl)cc2c1=O [Compound 95, (R)-6-chloro-1-(2-fluoro-4-hydroxy-phenyl)-4-oxo-7-(2-((pyridin-2-yloxy)methyl)pyrrolidin-1-yl)-1,4-dihydro-quinoline-3-carboxylic acid] |

Same assay, conditions: Lin28a-dependent Zcchc11 (Z11) TUTase assay; read-out: Potency Lin28a-dep Z11 IC50

| Compound | IC50 [µM] |
| --- | --- |
| CN(C)C1CN(c2ccc(-n3cc(C(=O)O)c(=O)c4cc(F)c(N5CCC[C@@H]5COc5cc(O)ccn5)c(F)c43)cn2)C1 [Example 600, (R)-1-(6-(3-(dimethylamino)azetidin-1-yl)pyridin-3-yl)-6,8-difluoro-7-(2-(((4-hydroxypyridin-2-yl)oxy)methyl)pyrrolidin-1-yl)-4-oxo-1,4-dihydroquinoline-3-carboxylic acid] | ≤ 1 |
| CN(C)C1CN(c2ccc(-n3cc(C(=O)O)c(=O)c4cc(Cl)c(N5CC6(CC6)C[C@@H]5COc5nc(OC6CC6)ccc5Cl)cc43)cn2)C1 [Example 675, (R)-6-chloro-7-(6-(((3-chloro-6-cyclopropoxy-pyridin-2-yl)oxy)methyl)-5-azaspiro[2.4]heptan-5-yl)-1-(6-(3-(dimethylamino)azetidin-1-yl)pyridin-3-yl)-4-oxo-1,4-dihydroquinoline-3-carboxylic acid] | ≤ 1 |
| Nc1ccc(-n2cc(C(=O)O)c(=O)c3cc(Cl)c(N4CCC[C@@H]4COc4nc(OC5CC5)ccc4Cl)cc32)cn1 [Example 647, (R)-1-(6-aminopyridin-3-yl)-6-chloro-7-(2-(((3-chloro-6-cyclopropoxy-pyridin-2-yl)oxy)methyl)pyrrolidin-1-yl)-4-oxo-1,4-dihydroquinoline-3-carboxylic acid] | ≤ 1 |
| CN(C)C1CN(c2ccc(-n3cc(C(=O)O)c(=O)c4cc(Cl)c(N5C[C@@H](F)C[C@@H]5COc5ncccc5F)cc43)cn2)C1 [Example 466, 6-chloro-1-(6-(3-(dimethylamino)azetidin-1-yl)pyridin-3-yl)-7-((2R,4S)-4-fluoro-2-(((3-fluoropyridin-2-yl)oxy)methyl)pyrrolidin-1-yl)-4-oxo-1,4-dihydroquinoline-3-carboxylic acid] | ≤ 1 |

The remaining lines, values ahead:

| IC50 [µM] | Compound |
| --- | --- |
| ≤ 1 | O=C(O)c1cn(-c2cccnc2)c2cc(N3CCC[C@@H]3COc3ncccc3Cl)c(Cl)cc2c1=O [Example 489, (R)-6-chloro-7-(2-(((3-chloropyridin-2-yl)oxy)methyl)pyrrolidin-1-yl)-4-oxo-1-(pyridin-3-yl)-1,4-dihydroquinoline-3-carboxylic acid] |
| > 50 | COc1cc2c(=O)c(C(=O)O)cn(-c3cnccn3)c2cc1N1CCC[C@@H]1COc1ncccc1Cl [Example 512, (R)-7-(2-(((3-chloropyridin-2-yl)oxy)methyl)pyrrolidin-1-yl)-6-methoxy-4-oxo-1-(pyrazin-2-yl)-1,4-dihydroquinoline-3-carboxylic acid] |
| ≤ 1 | COCCOc1ccc(-n2cc(C(=O)O)c(=O)c3cc(Cl)c(N4CCC[C@@H]4COc4ncccc4Cl)cc32)cn1 [Example 415, (R)-6-chloro-7-(2-(((3-chloropyridin-2-yl)oxy)methyl)pyrrolidin-1-yl)-1-(6-(2-methoxy-ethoxy)pyridin-3-yl)-4-oxo-1,4-dihydroquinoline-3-carboxylic acid] |
| ≤ 1 | O=C(O)c1cn(-c2ccnc(O)c2)c2cc(N3CCC[C@@H]3COc3ncccc3Cl)c(Cl)cc2c1=O [Example 428, (R)-6-chloro-7-(2-(((3-chloropyridin-2-yl)oxy)methyl)pyrrolidin-1-yl)-1-(2-hydroxypyridin-4-yl)-4-oxo-1,4-dihydroquinoline-3-carboxylic acid] |
| ≤ 1 | CN(C)c1cnc(-n2cc(C(=O)O)c(=O)c3cc(Cl)c(N4CCC[C@@H]4COc4ncccc4Cl)cc32)cn1 [Example 424, (R)-6-chloro-7-(2-(((3-chloropyridin-2-yl)oxy)methyl)pyrrolidin-1-yl)-1-(5-(dimethylamino)pyrazin-2-yl)-4-oxo-1,4-dihydroquinoline-3-carboxylic acid] |
